Tests used:
HEK293 = experiment: Antiproliferative activity against human HEK293 cells after 48 hrs by MTT assay; format: cell-based; conditions: HEK293, 48 h
HepG2 = experiment: Antiproliferative activity against human HepG2 cells after 48 hrs by MTT assay; format: functional, cell-based; conditions: HepG2, 48 h
HeLa = experiment: Antiproliferative activity against human HeLa cells after 48 hrs by MTT assay; format: functional, cell-based

SMILES | IC50 (HepG2) | IC50 (HeLa) | IC50 (HEK293)
COc1ccc(OC)c(C2C3=C(N=C4Sc5ccccc5N42)C(=O)c2ccccc2C3=O)c1 (configuration not stated) | 190 µM | 125 µM | > 200 µM
O=C1C2=C(C(=O)c3ccccc31)C(c1ccc(Cl)cc1Cl)N1C(=N2)Sc2ccccc21 (configuration not stated) | 3.56 µM | 2.68 µM | 4.9 µM
COc1cc(C2C3=C(N=C4Sc5ccccc5N42)C(=O)c2ccccc2C3=O)cc(OC)c1OC (configuration not stated) | 5.03 µM | 9.32 µM | 11 µM
COc1cccc2c1C(=O)c1c(O)c3c(c(O)c1C2=O)C[C@@](O)(C(=O)CO)C[C@@H]3O[C@H]1C[C@H](N)[C@H](O)[C@H](C)O1 [DOXORUBICIN] | 1.15 µM | – | 1.06 µM

Further lines, with some results ahead:

IC50 (HepG2) | IC50 (HeLa) | SMILES | IC50 (HEK293)
5.76 µM | 4.23 µM | O=C1C2=C(C(=O)c3ccccc31)C(c1cccs1)N1C(=N2)Sc2ccccc21 (configuration not stated) | 5.9 µM
23.4 µM | 15.6 µM | O=C1C2=C(C(=O)c3ccccc31)C(c1ccc(Cl)cc1)N1C(=N2)Sc2ccccc21 (configuration not stated) | 25.9 µM
9.07 µM | 6.62 µM | O=C1C2=C(C(=O)c3ccccc31)C(c1ccco1)N1C(=N2)Sc2ccccc21 (configuration not stated) | 10.1 µM
1.7 µM | 3.81 µM | Cc1ccc(C2C3=C(N=C4Sc5ccccc5N42)C(=O)c2ccccc2C3=O)cc1 (configuration not stated) | 5.18 µM
1.66 µM | 2.99 µM | O=C1C2=C(C(=O)c3ccccc31)C(c1ccccc1)N1C(=N2)Sc2ccccc21 (configuration not stated) | 4.16 µM
9.4 µM | 3.96 µM | O=C1C2=C(C(=O)c3ccccc31)C(c1ccc(F)cc1)N1C(=N2)Sc2ccccc21 (configuration not stated) | 15.1 µM
14.3 µM | 29 µM | O=C1C2=C(C(=O)c3ccccc31)C(c1ccc([N+](=O)[O-])cc1)N1C(=N2)Sc2ccccc21 (configuration not stated) | 50.3 µM

Source: ChEMBL document CHEMBL3124795, “Synthesis and antiproliferative evaluation of 13-aryl-13H-benzo[g]benzothiazolo [2,3-b]quinazoline-5,14-diones” (Bioorg Med Chem Lett, 2014)
